Data: patent publication US20020052343A1, “Salicylamides as serine protease inhibitors” (priority 1999, published 2002)

Legend:
human Urokinase = target: T1, human Urokinase (Homo sapiens, UniProt P00749); test: Urokinase (uPA) inhibition, chromogenic substrate hydrolysis, Ki app.; type: biochemical
T1 construct: purchased American Diagnostica, Conn., USA
Protocol: (§1) The effectiveness of compounds of the present invention as inhibitors of Urokinase and Factor Xa is determined by using synthetic substrates and purified Urokinase and purified human Factor Xa respectively.
The rates of hydrolysis by the chromogenic substrates were measured both in the absence and presence of compounds of the present invention. […] The results of this assay are expressed as the inhibitory constant, Ki app. Factor Xa determinations were made in 50 mM Tris buffer, pH 7.5, containing 1 M NaCl, 5 mM CaCl2, 0.05% Tween-20, and 1.5 mM EDTA. […] Initial velocity measurements calculated from the progress curves by a kinetic analysis program (Batch Ki; Peter Kuzmic, BioKin, Ltd., Madison, Wis.) were used to determine Ki app.
Urokinase inhibition determinations were made in 50 mM Tris (pH 7.5), 150 mM NaCl, 0.05% Tween-20, 0.002% antifoam, and 1 mM EDTA. human Urokinase (from American Diagnostica, Conn., USA). […] Initial velocity measurements calculated from the progress curves by a kinetic analysis program (Batch Ki; Peter Kuzmic, BioKin, Ltd., Madison, Wis.) were used to determine Ki app.

human Factor Xa = target: T2, human Factor Xa (Homo sapiens, UniProt P00742); test: Factor Xa inhibition, chromogenic substrate hydrolysis, Ki app.; type: biochemical; conditions: 2-3 nM human Factor Xa, substrate 1 mM, 50 mM Tris pH 7.5, absorbance at 405 nm, read-out: FXa Ki
T2 construct: purchased Haematologic Technologies, Vt., USA
Protocol: as §1, with “Some of the compounds of the present invention show selectivity between uPA and FXa, with respect to their inhibitory properties. The” for “The”
The rates of hydrolysis by the chromogenic substrates were measured both in the absence and presence of compounds of the present invention. Hydrolysis of the substrates result in the release of a chromogenic moiety, which is monitored spectrophotometrically by measuring the increase in absorbance at 405 nano meter (nm). A decrease in the rate of absorbance change at 405 nm in the presence of a inhibitor is indicative of enzyme inhibition. The results of this assay are expressed as the inhibitory constant, Ki app. Factor Xa determinations were made in 50 mM Tris buffer, pH 7.5, containing 1 M NaCl, 5 mM CaCl2, 0.05% Tween-20, and 1.5 mM EDTA. Values of Ki app. were determined by allowing 2-3 nM human Factor Xa (Haematologic Technologies, Vt., USA) to react with the substrate (1 mM) in the presence of an inhibitor. Hydrolysis of the chromogenic substrate is followed spectrophotometrically at 405 nm for five minutes. The enzyme assay routinely yielded linear progression curves under these conditions. Initial velocity measurements calculated from the progress curves by a kinetic analysis program (Batch Ki; Peter Kuzmic, BioKin, Ltd., Madison, Wis.) were used to determine Ki app.

T2 sequence (P00742 235-488 limits assumed): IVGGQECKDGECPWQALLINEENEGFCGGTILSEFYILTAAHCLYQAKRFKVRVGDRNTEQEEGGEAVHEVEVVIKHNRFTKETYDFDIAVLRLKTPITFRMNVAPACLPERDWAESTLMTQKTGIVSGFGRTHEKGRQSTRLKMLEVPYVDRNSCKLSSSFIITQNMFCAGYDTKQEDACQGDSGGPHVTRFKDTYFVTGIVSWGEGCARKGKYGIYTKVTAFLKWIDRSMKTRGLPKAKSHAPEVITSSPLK
T2 sequence (P00742 41-179 partner limits assumed): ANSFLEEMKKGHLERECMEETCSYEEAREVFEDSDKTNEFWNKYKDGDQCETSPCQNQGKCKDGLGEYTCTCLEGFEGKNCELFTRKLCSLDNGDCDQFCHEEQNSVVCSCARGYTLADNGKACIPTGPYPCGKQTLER

Ki (human Factor Xa) | Compound | Ki (human Urokinase)
290000 nM | Cc1cc(I)c(O)c(C(=O)Nc2ccc(NC(=N)N)nc2)c1 [Ex. 205] | 5500 nM
880 nM | Cc1cc(I)c(O)c(C(=O)Nc2ccc(C(=N)N)cc2)c1 [Ex. 1, N-(4—Carbamimidoyl-phenyl)-2-hydroxy-3-iodo-5-methyl-benzamide] | –

The next lines start with the compound.

Compound | Ki (human Factor Xa) | Ki (human Urokinase)
Cc1cc(Br)c(O)c(C(=O)Nc2ccc(C(=N)N)cc2)c1 [Ex. 5] | 840 nM | 290 nM
N=C(N)Nc1ccc(NC(=O)c2cc3ccccc3cc2O)cn1 [Ex. 201, 3-hydroxy-naphthalene-2-carboxylic acid (6-guanidino-pyridin-3-yl)-amide] | 130000 nM | 326 nM
CC(C)c1cc(C(=O)Nc2ccc(C(=N)N)cc2)c(O)c(C(C)C)c1 [compound 24] | 34000 nM | 2900 nM
